# Reference: article PMC7497692 (Investigational New Drugs, 2020)
# Where two headings read alike, the source gives them in different places.
# Assays:
# [1] = Oral and IV tracer PK and absolute bioavailability (part B); assay type: in vivo, human healthy male volunteers; conditions: for bioavailability: 500 mg; for tlag / tmax: median (min–max)
# Protocol: Participants were hospitalized from day 1 to day 7 of the study, and further assessed on days 9, 11, and 14 (study end).
# In brief, the isotopically labeled internal standard [^2H]-MSC2156119A was added to 20 μL K2-ethylenediaminetetraacetic acid (EDTA) plasma. […] Samples were centrifuged and 10 μL aliquots of the supernatant were injected onto an Acquity Charged Surface Hybrid™ (CSH) C18 column (2.1 × 50 mm; […]; Waters, Milford, Massachusetts, USA). Separation was carried out using a mobile phase gradient (eluent A: water/formic acid [100 + 1, v/v]; eluent B: acetonitrile/formic acid [100 + 1, v/v]) with a flow rate of 0.6 mL/min. […] The lower limit of quantification (LLOQ) was 5.00 ng/mL, and the calibration standard responses were linear over the range between 5.00 and 2500 ng/mL using a weighted (1/x^2) linear regression.
# The accelerator mass spectrometry (AMS) analysis of [^14C]-tepotinib in plasma samples in part B of the trial was performed by Eckert & Ziegler Vitalea Science (Davis, California, USA) using a validated method that involves isolation of the analyte by ultra-high-performance liquid chromatography (UPLC) fractionation, followed by the quantification of the ^14C content in collected fractions using AMS [26]. […] Following protein precipitation and further chemical steps, 50 μL of the reconstituted extracts were injected onto a Waters Acquity UPLC instrument equipped with a CSH fluoro-phenyl analytical column (3.0 × 100 mm; 1.7 μm; Waters, Milford, Massachusetts, USA) and an ethylene bridged hybrid C18 (2.1 × 5 mm; 1.7 μm; Waters, Milford, Massachusetts, USA) pre-column. Separation of [^14C]-tepotinib from potentially interfering metabolites or degradants that may have been present in the study samples was carried out using a mobile phase gradient (eluent A: 5 mM ammonium acetate in water; eluent B: acetonitrile) with a flow rate of 0.75 mL/min. […] Samples were then introduced into the BioMICADAS AMS instrument (PSI/ETH, Zurich, Switzerland). The LLOQ was 0.0883 pg/mL.
# The maximum plasma concentration (Cmax) and time to reach maximum concentration (tmax) were derived directly from the plasma concentration–time data. Lag time (tlag) was the time prior to the first measurable (non-zero) concentration. The area under the plasma concentration–time curve from 0 to t (last measurable concentration; AUC0–t) was calculated using a mixed log–linear trapezoidal method. Area under the plasma concentration–time curve until the last sampling time (AUCall), which corresponds to AUC0–240 h within the observation period, was used for metabolite calculations. Amounts excreted in urine, feces, and total (urine + feces) were calculated as the sum of amounts (concentration multiplied by volume) for each collection from time 0 to time t. The terminal rate constant (λz) was used to estimate the terminal half-life (t½) (ln 2/λz), and the area under the concentration–time curve from time 0 to infinity (AUC0–∞). Total body clearance (CL) and apparent body clearance (CL/f) were determined by dose/AUC0–∞, and total volume of distribution (Vz) and apparent volume of distribution (Vz/f) were calculated by dose/(AUC0–∞*λz) after IV and oral administration, respectively. Volume of distribution of the central compartment (Vc) was derived by dividing the dose by the initial drug plasma concentration after IV administration. Absolute bioavailability was calculated as F = (AUCoral/doseoral)/(AUCIV/doseIV) × 100. The ratios (%) AUCtepotinib or metabolite/AUCtotal radioactivity were calculated as a percentage of the molar AUCs.
# P-glycoprotein = tested on: P-glycoprotein; parameters: method as in earlier work; conditions: cited from earlier work
# [2] = parameters: method as in PMID 23553846; conditions: xenograft mice; cited from earlier work
# [3] = cited from earlier work
# [4] = single oral 500 mg tablet, geometric mean (geometric CV%), min–max
# [5] = single oral 500 mg tablet, listed as tepotinib
compound,measurement,setting,value
CN1CCC(COc2cnc(-c3cccc(Cn4nc(-c5cccc(C#N)c5)ccc4=O)c3)nc2)CC1 [Tepotinib],"absolute bioavailability, inter-individual variability (geometric CV)","[1]; 500 mg tablet vs IV tracer, n=6",10.8%
same,Vc,"[1]; IV tracer, geometric mean (geometric CV%), min–max",34.6 L
same,t½,"[1]; IV tracer, geometric mean (geometric CV%), min–max, plasma",31.2 h
same,bioavailability,"[1]; male, human, in vivo, geometric mean, 500 mg phase II tablet formulation vs IV tracer, n=6, read-out: absolute bioavailability",72%
same,bioavailability,"[1]; male, human, in vivo, range, 500 mg tablet vs IV tracer, n=6, read-out: absolute bioavailability, range",62 to 81%
same,clearance,"[1]; male, human, in vivo, IV tracer, geometric mean (geometric CV%), min–max",213 mL/min
same,Vd,"[1]; male, human, in vivo, IV tracer, geometric mean (geometric CV%), min–max, read-out: Vz",574 L
same,Vd/F,"[1]; male, human, in vivo, single oral 500 mg tablet, geometric mean (geometric CV%), min–max, read-out: Vz/f",726 L
same,half-life,"[1]; male, human, in vivo, summary statement in the discussion",1800 min
same,CL/f,[1]; [4],17.8 L/h
same,t½,[1]; [4],28.3 h
same,tlag,[1]; single oral 500 mg tablet,0.52 (0.25–2.0) Hours
same,tmax,[1]; single oral 500 mg tablet,10.0 (3.0–10.0) Hours
same,tlag,[1]; [5],0.5 h
same,tmax,[1]; [5],10 h
same,P-glycoprotein substrate status,P-glycoprotein,substrate of the drug efflux transporter P-glycoprotein
same,tumor versus plasma concentration,[2],higher concentrations in xenograft tumors than in the plasma of mice
same,main binding partners in plasma,[3],human serum albumin and α-acid glycoprotein
same,unbound fraction of tepotinib in human plasma,"[3]; in vitro, concentration range 0.3–10 μM",1.6–3.4%
